# Reference: ChEMBL document CHEMBL1126539, “Oxazole, thiazole, and imidazole derivatives of 2,6-di-tert-butylphenol as dual 5-lipoxygenase and cyclooxygenase inhibitors” (Bioorg Med Chem Lett, 1993)
# Tests used:
# [1] = tested on: RBL-1; assay: Compound was tested for its inhibitory activity against LTB4 (5-LO) formation in RBL-1 cells stimulated with the calcium ionophore A-23187; type: functional, cell-based; conditions: Rattus norvegicus
# [2] = tested on: RBL-1; assay: Compound was tested for its inhibitory activity against PGF-2 alpha (CO) formation in RBL-1 cells stimulated with the calcium ionophore A-23187; type: functional, cell-based; conditions: Rattus norvegicus
# [3] = tested on: Rattus norvegicus; assay: Compound was tested for inhibition of edema in the carrageenan foot-pad edema test; inactive; type: functional
IC50 [1] [nM],IC50 [2] [nM],SMILES,Inhibition [3] [%]
1200,340,CC(C)(C)c1cc(/C=C2\OC(N=C(N)N)=NC2=O)cc(C(C)(C)C)c1O,
1300,2100,CN1C(NC(=N)N)=NC(=O)/C1=C/c1cc(C(C)(C)C)c(O)c(C(C)(C)C)c1,<25
910,83,CC(C)(C)c1cc(/C=C2\SC(N=C(N)N)=NC2=O)cc(C(C)(C)C)c1O,
380,12,CC(C)(C)c1cc(/C=C2\SC(=S)NC2=O)cc(C(C)(C)C)c1O,
840,1700,CC(C)(C)c1cc(/C=C2\OC(=S)NC2=O)cc(C(C)(C)C)c1O,
2800,650,CC(C)(C)c1cc(/C=C2\OC(=O)NC2=O)cc(C(C)(C)C)c1O,
780,4600,CN1C(=O)NC(=O)/C1=C/c1cc(C(C)(C)C)c(O)c(C(C)(C)C)c1,<25
,350,CC(C)(C)c1cc(/C=C2\SC(=O)NC2=O)cc(C(C)(C)C)c1O,
170,790,CN1C(=S)NC(=O)/C1=C/c1cc(C(C)(C)C)c(O)c(C(C)(C)C)c1,<25
1200,110,CC(C)(C)c1cc(/C=C2\SC(=N)NC2=O)cc(C(C)(C)C)c1O [DARBUFELONE],
24000,,Cc1ccc(Cl)c(Nc2ccccc2C(=O)O)c1Cl [MECLOFENAMATE SODIUM],
